Reference: article PMC10890502, “Prevention of Protease-Induced Degradation of Desmoplakin via Small Molecule Binding” (Journal of Personalized Medicine, 2024)
Residue numbers refer to the chain shown, from its start. Where two headings read alike, the source gives them in different places.

Key:
Assay in all cases: biochemical
[1] = molecular target: T1, sDSP (DSP178–627) (Homo sapiens, UniProt P15924, S442F); design: FITC-sDSP S442F degradation by trypsin (1:50), fluorescence polarization after 60 min, per cent of protease-only control; details: degradation rate of DSP S442F by trypsin; read-out: % of control remaining
T1 construct: gene DSP; N-terminal spectrin repeat/SH3 fragment, residues 178-627; pGEX-1 GST fusion cut with thrombin, E. coli BL21(DE3); fluorescein-5-maleimide label on exposed cysteines (C405, C524)
T1 sequence (P15924 178-627 S442F): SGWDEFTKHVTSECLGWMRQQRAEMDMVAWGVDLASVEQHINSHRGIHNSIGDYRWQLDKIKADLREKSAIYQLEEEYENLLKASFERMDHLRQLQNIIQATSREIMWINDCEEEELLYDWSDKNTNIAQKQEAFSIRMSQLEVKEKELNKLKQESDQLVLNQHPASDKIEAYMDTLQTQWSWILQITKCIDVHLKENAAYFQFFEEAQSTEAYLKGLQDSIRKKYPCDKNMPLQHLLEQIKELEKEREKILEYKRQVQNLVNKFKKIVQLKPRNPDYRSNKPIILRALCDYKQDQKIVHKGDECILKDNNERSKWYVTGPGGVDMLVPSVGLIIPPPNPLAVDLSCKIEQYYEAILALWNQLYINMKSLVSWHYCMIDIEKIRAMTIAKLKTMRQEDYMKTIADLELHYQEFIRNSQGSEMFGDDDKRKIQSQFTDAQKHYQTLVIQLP
Experimental: Fluorescence Polarization (FP) assays were conducted in […] format using a BioTek Synergy H4 plate reader with polarization capacity (Agilent; Savage, MD, USA). All samples were run at 25 °C using PBS pH 7.4, 1 mM DTT, 10 mM CaCl2, 5% DMSO, and […] FITC- DSP178–627, with 500 μM of each drug. Trypsin, chymotrypsin, or calpain at either 1:50, 1:50, or 1:20 concentration was added directly before data collection with an average void time of 2 min. Control experiments in each plate were conducted in triplicate and consisted of DSP178–627 + DMSO + protease as a positive control and DSP178–627 + DMSO + [compound left out] + protease as a negative control. Only plates that had functional positive and negative controls were used in data analysis. Samples were excited at 485 nm, and polarization was monitored at 528 nm. Data were collected at 5 min increments for 1–3 h. A mutation that partially occludes the DSP calpain cleavage site rescues DSP protein levels. We next assessed whether protease-dependent cleavage can also be blocked by small molecules. We screened 2496 FDA-approved drugs for their ability to prevent trypsin-dependent cleavage of sDSP S442F in our FP assay (Figure 3A). […] No change in fluorescence polarization after an hour is indicative of 0% protein degradation rate, as occurs in the [compound left out] positive control. […] (A) sDSP S442F degradation in the presence of trypsin plus 2496 compounds from the Cayman chemical “FDA library”. A degradation rate of 100% indicates the same desmoplakin degradation rate with and without the addition of 500 μM drug while a 0% rate indicates no degradation, as judged by fluorescent polarization values after 1 h. A trypsin-only control and a trypsin + [compound left out] control is indicated. Protection (red lines) was arbitrarily set between 33% and −10%. […] (B) Example of how the data in A was generated.

[2] = molecular target: T2, sDSP (DSP178–627) (Homo sapiens, UniProt P15924); design: FITC-sDSP degradation by calpain (1:20), fluorescence polarization after 60 min, per cent of calpain-only control; details: degradation rate of DSP WT by calpain; read-out: % of control remaining
T2 construct: gene DSP; N-terminal spectrin repeat/SH3 fragment, residues 178-627; pGEX-1 GST fusion cut with thrombin, E. coli BL21(DE3); fluorescein-5-maleimide label on exposed cysteines (C405, C524)
T2 sequence (P15924 178-627): T1 sequence (P15924 178-627 S442F) with F265S
Experimental: (§1) Fluorescence Polarization (FP) assays were conducted in […] format using a BioTek Synergy H4 plate reader with polarization capacity (Agilent; Savage, MD, USA). All samples were run at 25 °C using PBS pH 7.4, 1 mM DTT, 10 mM CaCl2, 5% DMSO, and […] FITC- DSP178–627, with 500 μM of each drug. Trypsin, chymotrypsin, or calpain at either 1:50, 1:50, or 1:20 concentration was added directly before data collection with an average void time of 2 min. Control experiments in each plate were conducted in triplicate and consisted of DSP178–627 + DMSO + protease as a positive control and DSP178–627 + DMSO + [compound left out] + protease as a negative control. Only plates that had functional positive and negative controls were used in data analysis. Samples were excited at 485 nm, and polarization was monitored at 528 nm. Data were collected at 5 min increments for 1–3 h. […] Therefore, we next tested whether these 62 compounds also prevent wildtype and variant DSP degradation in the presence of calpain. […] (A) Normalized fluorescent polarization of WT and sDSP variants in the presence of a 1:20 ratio of calpain plus 500 μM drug, as compared to calpain alone (black) (B) Identity and chemical structure of the six best-performing compounds.

[3] = molecular target: T3, sDSP (DSP178–627) (Homo sapiens, UniProt P15924, R451G); design: FITC-sDSP degradation by calpain (1:20), fluorescence polarization after 60 min, per cent of calpain-only control; details: degradation rate of DSP R451G by calpain; read-out: % of control remaining
T3 construct: gene DSP; N-terminal spectrin repeat/SH3 fragment, residues 178-627; pGEX-1 GST fusion cut with thrombin, E. coli BL21(DE3); fluorescein-5-maleimide label on exposed cysteines (C405, C524)
T3 sequence (P15924 178-627 R451G): T1 sequence (P15924 178-627 S442F) with F265S, R274G
Experimental: as §1

[4] = molecular target: T1, sDSP (DSP178–627); design: FITC-sDSP degradation by calpain (1:20), fluorescence polarization after 60 min, per cent of calpain-only control; details: degradation rate of DSP S442F by calpain; read-out: % of control remaining
Experimental: as §1

[5] = molecular target: T4, sDSP S507F (Homo sapiens, UniProt P15924, S507F); design: FITC-sDSP degradation by calpain (1:20), fluorescence polarization after 60 min, per cent of calpain-only control; details: degradation rate of DSP S507F by calpain; read-out: % of control remaining
T4 construct: gene DSP; N-terminal fragment, residues 178-627
Experimental: as §1

T4 sequence (P15924 whole entry S507F, the tested form may be a part): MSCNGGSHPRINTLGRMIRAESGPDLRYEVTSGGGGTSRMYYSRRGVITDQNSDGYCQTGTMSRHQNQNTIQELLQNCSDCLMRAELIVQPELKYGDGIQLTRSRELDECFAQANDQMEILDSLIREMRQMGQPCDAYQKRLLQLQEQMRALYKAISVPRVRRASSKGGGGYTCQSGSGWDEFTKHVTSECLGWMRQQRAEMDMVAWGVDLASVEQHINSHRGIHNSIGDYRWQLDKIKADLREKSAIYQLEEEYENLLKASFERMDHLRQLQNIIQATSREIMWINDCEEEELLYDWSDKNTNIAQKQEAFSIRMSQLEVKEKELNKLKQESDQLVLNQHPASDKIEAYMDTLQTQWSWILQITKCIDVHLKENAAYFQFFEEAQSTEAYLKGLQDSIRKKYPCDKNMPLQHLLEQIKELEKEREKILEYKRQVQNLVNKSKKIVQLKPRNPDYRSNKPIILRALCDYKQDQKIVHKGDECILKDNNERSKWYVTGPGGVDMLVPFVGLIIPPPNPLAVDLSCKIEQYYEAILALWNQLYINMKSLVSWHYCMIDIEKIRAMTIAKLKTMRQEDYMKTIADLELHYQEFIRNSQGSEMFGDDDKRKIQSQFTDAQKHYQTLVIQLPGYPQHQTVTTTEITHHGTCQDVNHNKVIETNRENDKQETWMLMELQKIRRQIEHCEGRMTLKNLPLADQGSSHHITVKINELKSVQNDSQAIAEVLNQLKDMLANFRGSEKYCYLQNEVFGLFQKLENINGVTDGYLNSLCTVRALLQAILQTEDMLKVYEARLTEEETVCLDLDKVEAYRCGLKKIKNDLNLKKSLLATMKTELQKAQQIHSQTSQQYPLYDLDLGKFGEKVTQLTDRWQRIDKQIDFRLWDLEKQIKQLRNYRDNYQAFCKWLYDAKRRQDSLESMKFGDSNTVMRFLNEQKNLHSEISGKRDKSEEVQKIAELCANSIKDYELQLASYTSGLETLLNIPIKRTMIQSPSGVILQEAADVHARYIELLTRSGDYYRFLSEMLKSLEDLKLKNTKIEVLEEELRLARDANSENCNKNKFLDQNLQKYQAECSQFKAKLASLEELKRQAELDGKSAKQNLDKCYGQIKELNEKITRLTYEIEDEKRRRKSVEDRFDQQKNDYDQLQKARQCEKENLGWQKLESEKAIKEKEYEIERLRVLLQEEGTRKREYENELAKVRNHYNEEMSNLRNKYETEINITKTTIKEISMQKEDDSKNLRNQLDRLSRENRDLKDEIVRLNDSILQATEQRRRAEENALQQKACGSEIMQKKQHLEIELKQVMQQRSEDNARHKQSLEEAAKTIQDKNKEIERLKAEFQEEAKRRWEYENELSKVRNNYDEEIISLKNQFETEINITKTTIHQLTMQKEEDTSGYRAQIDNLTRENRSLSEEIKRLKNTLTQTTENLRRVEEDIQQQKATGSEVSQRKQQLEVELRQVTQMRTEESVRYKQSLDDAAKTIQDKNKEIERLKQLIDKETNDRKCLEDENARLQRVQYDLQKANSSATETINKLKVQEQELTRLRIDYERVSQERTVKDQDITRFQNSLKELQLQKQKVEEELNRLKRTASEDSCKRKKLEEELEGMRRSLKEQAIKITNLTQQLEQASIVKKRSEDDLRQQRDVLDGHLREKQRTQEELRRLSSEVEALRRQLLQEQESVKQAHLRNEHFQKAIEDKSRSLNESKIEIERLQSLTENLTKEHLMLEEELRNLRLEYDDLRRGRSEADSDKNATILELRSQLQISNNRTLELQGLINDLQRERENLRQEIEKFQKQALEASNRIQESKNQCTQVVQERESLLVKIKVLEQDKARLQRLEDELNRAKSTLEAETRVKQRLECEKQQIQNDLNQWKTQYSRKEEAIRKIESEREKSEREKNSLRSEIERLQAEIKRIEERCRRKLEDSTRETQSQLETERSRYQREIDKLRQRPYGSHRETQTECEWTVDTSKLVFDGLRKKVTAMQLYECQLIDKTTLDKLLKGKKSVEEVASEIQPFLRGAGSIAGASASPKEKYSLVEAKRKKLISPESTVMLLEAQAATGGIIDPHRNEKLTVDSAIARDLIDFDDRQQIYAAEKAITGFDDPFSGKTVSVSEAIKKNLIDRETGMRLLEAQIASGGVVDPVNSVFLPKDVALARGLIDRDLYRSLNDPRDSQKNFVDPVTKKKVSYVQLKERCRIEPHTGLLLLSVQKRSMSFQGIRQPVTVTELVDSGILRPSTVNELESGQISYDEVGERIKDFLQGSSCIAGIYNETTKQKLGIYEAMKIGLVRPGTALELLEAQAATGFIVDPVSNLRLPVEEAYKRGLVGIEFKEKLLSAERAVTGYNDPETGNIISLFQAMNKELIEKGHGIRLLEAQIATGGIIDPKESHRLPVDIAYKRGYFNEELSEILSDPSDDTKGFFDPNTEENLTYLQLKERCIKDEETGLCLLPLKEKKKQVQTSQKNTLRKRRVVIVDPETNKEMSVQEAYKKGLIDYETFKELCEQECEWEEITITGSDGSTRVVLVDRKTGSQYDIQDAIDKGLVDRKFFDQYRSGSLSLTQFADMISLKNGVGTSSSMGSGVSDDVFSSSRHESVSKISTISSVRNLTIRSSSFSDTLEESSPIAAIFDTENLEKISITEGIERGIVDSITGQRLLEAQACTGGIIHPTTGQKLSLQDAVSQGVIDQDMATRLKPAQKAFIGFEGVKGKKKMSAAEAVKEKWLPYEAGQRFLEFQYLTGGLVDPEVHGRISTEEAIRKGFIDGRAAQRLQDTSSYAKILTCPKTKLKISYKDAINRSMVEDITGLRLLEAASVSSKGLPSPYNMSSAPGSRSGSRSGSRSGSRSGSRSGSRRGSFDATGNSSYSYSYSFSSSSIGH

remaining activity at 500 µM [1]: -8% | remaining activity at 500 µM [2]: 32% | remaining activity at 500 µM [3]: -5% | remaining activity at 500 µM [4]: 29% | remaining activity at 500 µM [5]: 26%
SMILES: CC(C)=CCC/C(C)=C/CC/C(C)=C/CSc1ccccc1C(=O)O [salirasib]
